Results: patent US11505581B2, “Antigens and T cell epitopes from cockroach and methods of making and using same” (La Jolla Institute for Allergy and Immunology, priority 2015, dated 2022)

System: PBMC
Test: ELISPOT (IFNγ, IL-5, IL-10, IL-17, IL-21) of PBMC expanded 14 days with Bla g extract, then stimulated with peptides or peptide pools
Type: cell-based, human
Design: key to Average Magnitude of Response: spot forming cells (SFC) per 10^6 PBMC; Response Rate per Subject: unit not given here; key to % (percentage of subjects responding to given antigen) / SFC (mean magnitude of response): “—” denotes no response
Settings: for Average Magnitude of Response / Response Rate per Subject: non-redundant epitopes, sensitized donors; for T cell reactivity (cytokine release) to NBGA, in words: sensitized subjects, 2-week extract stimulation
Procedure: PBMC Isolation and Cell Cultures: PBMC (peripheral blood mononuclear cells) were isolated from 450 mL (one unit) of blood by density gradient centrifugation as described and cryopreserved. For in vitro expansion of PBMC for peptide screening, cells were cultured in RPMI1640 (Omega Scientific)+5% human AB serum (Gemini Bioscience), GlutaMAX (Gibco), and penicillin/streptomycin (Omega Scientific) at 2×10^6 per mL, stimulated with 10 ug/mL Bla g extract (Greer), and incubated at 37° C. in 5% CO2. Every three days, IL-2 and IL-7 (10 U/mL) were added to the cultures. Cells were harvested for peptide screening at day 14.
ELISPOT Assays: Production of IFNγ, IL-5, IL-17, IL-10, and IL-21 (as representative of TH1, TH2, TH17, TR1, and […], respectively) in response to peptide stimulation was measured by ELISPOT as described previously. […] In brief, 1×10^5 cells per well were incubated with peptide, peptide pool, or Bla g extract (10, 5, and 10 ug/ml, respectively) on anti-lymphokine antibody coated ELISPOT plates (Millipore #MSIPS4510) for 22 hours. Subsequently, secondary anti-lymphokine antibodies were added and incubated for 2 hours, washed, and avidin-peroxidase complex added for 1 hour. Plates were washed and spots developed with 3-amino-9-ethylcarbazole (Sigma #A6926) and Vector Blue (Vector #SK-5300) for IFNγ/IL-5 and IL-10/IL-17 dual plates or TMB (Sigma #T0565) for single IL-21. Criteria for peptide pool positivity were at least 100 spot forming cells (SFC) per 10^6 PBMC, p<0.05, and stimulation index≥2. Criteria for peptide positivity were identical except with a threshold of 20 SFCs.
We synthetized overlapping peptide sets of 15 amino acids in length overlapping by 10 residues and covering the entire sequence of known Bla g Allergens, i.e. Bla g 1-7, 9 and 11, referred from hereafter collectively as BLAGA. A total of 809 BLAGA peptides were arranged in pools, encompassing on average 20 peptides.
To assess T cell reactivity, we utilized a strategy applied to the definition of epitopes from various allergen sources^15,16 utilizing in vitro stimulation with allergen extracts. Here, PBMC from each subject were stimulated in vitro with Bla g extract. After 14 days, pools of overlapping 15-mer peptides from the BLAGA were tested for responses, and positive pools deconvoluted to identify the specific epitopes. As readout, we utilized ELISPOT assays specific for IL-5, IFNγ, IL-10, IL-17 and IL-21, chosen as representative of TH2, TH1, TR1, TH17 and TFH reactivity, respectively.

[1] = Asthmatic (combines IA, MMA, SA)

| Substance | Average Magnitude of Response | Response Rate per Subject | also measured |
| --- | --- | --- | --- |
| LKNYQLDSELRIKAF | 3.2 | 1.4 |  |
| LKYFNMGVQKFWAFD | 19.8 | 8.6 |  |
| LNAIEFINNIHDLLG | 8.8 | 2.9 |  |
| LNDYILPAPYEIYPW | 3.0 | 2.9 |  |
| LNIFTNNLGRINTHV (listed as Blattella germanica) | 57.6 | 4.3 |  |
| LNQEAHYQFDSIHKF | 22.6 | 2.9 |  |
| LNTYYSYYYFNYPTF | 4.1 | 2.9 |  |
| LRLSEHLDYVKNLTV | 3.1 | 1.4 |  |
| LTVFDSTSCNVVVAS | 4.0 | 2.9 |  |
| LVFLRNAKIELKPNQ | 4.0 | 2.9 |  |
| LVYPTSLGFPLKLVL | 4.4 | 2.9 |  |
| LWEINMIKAIISQLQ | 3.5 | 2.9 |  |
| MAPSYKLTYCPVKAL | 8.8 | 4.3 |  |
| MGVQKFWAFDNTTFS | 7.3 | 7.1 |  |
| MIVDTISDFRAAIAN (listed as Blattella germanica) | 91.4 | 7.1 |  |
| MNITGSINLMFSQMY | 7.6 | 5.7 |  |
| NAIEFLNNIHDLLGI | 3.0 | 1.4 |  |
| NASAVIQEFLKTYKK | 5.0 | 2.9 |  |
| NDIEKRVPFSHDDRL (listed as Blattella germanica) | 72.8 | 15.7 |  |
| NGGYLAAGKLTWADF (listed as Blattella germanica) | 58.5 | 5.7 |  |
| NIACLLHNKYDSTKS (listed as Blattella germanica) | 61.0 | 2.9 |  |
| NLEIDMIVDTISDFR | 19.1 | 2.9 |  |
| NTTFSNASAVIQEFL | 4.2 | 5.7 |  |

| Substance | Average Magnitude of Response | Response Rate per Subject | also measured |
| --- | --- | --- | --- |
| NVIYSQNSFLPRATT | 3.8 | 1.4 |  |
| NYAIVEGCPAAANGH (listed as Blattella germanica) | 64.6 | 1.4 |  |
| PAIKAWVAKRPPTDL | 18.7 | 10.0 |  |
| PAYFKMNSPSLWKYN (listed as Blattella germanica) | 56.1 | 4.3 |  |
| PKSMLLNIFTNNLGR (listed as Blattella germanica) | 52.5 | 7.1 |  |
| PLKKETIPYYTKKFD | 14.2 | 5.7 |  |
| PNLKPSMPFGKTPVL | 4.2 | 2.9 |  |
| PVDQIIAIATDYLAN | 7.5 | 2.9 |  |
| QDVHKKLREWLSKNV | 8.5 | 1.4 |  |
| QIIAIATDYLANDAE | 7.5 | 2.9 |  |
| QKGYMVSSMTDLWEA | 13.9 | 8.6 |  |
| QKKWDPLKKETIPYY | 7.7 | 4.3 |  |
| QPNLKALREKVLGLP | 6.5 | 5.7 |  |
| QQFISSEMVEPKEAS | 6.8 | 2.9 |  |
| QTHQSVAISRYLGKQ | 4.3 | 4.3 |  |
| QTLFLLLLLLAAVSA | 3.2 | 1.4 |  |
| QVYRRLVTAVNDIEK | 44.1 | 5.7 |  |
| RCGRSMQGYPFNPCL | 20.4 | 10.0 |  |
| RCNNVGIRIYVDVVL | 13.0 | 2.9 |  |
| RDMVRRCNNVGIRIY | 5.2 | 5.7 |  |
| RGNNAIKWLVNFGVG | 15.0 | 5.7 |  |
| RHNSAYKLHFNAFEY | 44.0 | 1.4 |  |
| RIKAFLALVECPCNK | 4.2 | 1.4 |  |

| Substance | Average Magnitude of Response | Response Rate per Subject | also measured |
| --- | --- | --- | --- |
| RILLRLHRCFQVLGR | 13.5 | 1.4 |  |
| RLFGAEVGWLALHHN | 35.5 | 1.4 |  |
| RSEERLATATAKLAE | 13.3 | 1.4 |  |
| RVPFSHDDRLGFLTF | 34.2 | 7.1 |  |
| RWRQIFNMVGFRNAV (listed as Blattella germanica) | 61.7 | 11.4 |  |
| Receptor for activated protein kinase C [RACK1] |  |  | % (percentage of subjects responding to given antigen) (AR): —; SFC (mean magnitude of response) (AR): —; % (percentage of subjects responding to given antigen) [1]: 9%; SFC (mean magnitude of response) [1]: 19 SFC; % (percentage of subjects responding to given antigen) (Controls): 2%; SFC (mean magnitude of response) (Controls): 30 SFC; % (percentage of subjects responding to given antigen) (IA): 12%; SFC (mean magnitude of response) (IA): 31 SFC; % (percentage of subjects responding to given antigen) (MMA): 11%; SFC (mean magnitude of response) (MMA): 3 SFC; % (percentage of subjects responding to given antigen) (SA): —; SFC (mean magnitude of response) (SA): —; T cell reactivity (cytokine release) to NBGA, in words: Significant reactivity |
| SEVTALNRQIGGTPI | 3.9 | 2.9 |  |
| SHVHFRFVPSAAVEF | 3.3 | 1.4 |  |
| SINLMFSQMYHAQLA | 4.3 | 1.4 |  |
| SPYFVTNTEKMITEF | 13.6 | 2.9 |  |
| SSLFQVANQYTGILY | 50.2 | 10.0 |  |
| STSCNVVVASQECVG | 4.2 | 4.3 |  |
| STSLVKAHSMRNSAS | 19.9 | 4.3 |  |
| SVNATVVRLQSWQSE | 4.1 | 2.9 |  |
| TGILYKARLSLDRNE | 4.3 | 2.9 |  |
| THQFNVAGSVTVDKT | 5.6 | 2.9 |  |
| TIPYYTKKFDEVVKA (listed as Blattella germanica) | 311.6 | 11.4 |  |
| TKKFDEVVKANGGYL | 24.3 | 4.3 |  |
| Triosephosphate isomerase [TPI] |  |  | % (percentage of subjects responding to given antigen) (AR): 6%; SFC (mean magnitude of response) (AR): 13 SFC; % (percentage of subjects responding to given antigen) [1]: 11%; SFC (mean magnitude of response) [1]: 31 SFC; % (percentage of subjects responding to given antigen) (Controls): 2%; SFC (mean magnitude of response) (Controls): 17 SFC; % (percentage of subjects responding to given antigen) (IA): 6%; SFC (mean magnitude of response) (IA): 6 SFC; % (percentage of subjects responding to given antigen) (MMA): 11%; SFC (mean magnitude of response) (MMA): 83 SFC; % (percentage of subjects responding to given antigen) (SA): 23%; SFC (mean magnitude of response) (SA): 54 SFC; T cell reactivity (cytokine release) to NBGA, in words: Significant reactivity |
| VAISRYLGKQFGLSG (listed as Blattella germanica) | 94.9 | 8.6 |  |
| VEALFLLMKADPSIH | 4.2 | 1.4 |  |
| VFIGKFYTEFDMENN | 4.0 | 2.9 |  |
| VIYVQIRFSVRRFHP | 15.1 | 2.9 |  |
